Literature values, collected in patent US20110183005A1, “PROCESS FOR THE PREPARATION OF CO[…] OF STABILIZED HYPOBROMITES” (BROMINE COMPOUNDS LTD., priority 2002, published 2011).

Conditions: at 25° C.

OBr [Hypobromous acid]
pK: 8.8
